Measurements: the supplement of paper PMC11061612

Assays:
[1] = system: HCC-44 (Lung Adenocarcinoma); assay: Bliss excess, mean over the matrix (fraction); higher = more synergy
Outline: (§1)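 After 24 hours at 37°C and 5% CO2 in 1536-well plates, cells in DMEM/F12 or RPMI plus 10% FBS received two-drug dose matrices for 72 hours. Viability came from CellTiter-Glo 2.0 luminescence and was scaled as inhibition, anchored at 0 by vehicle wells and at 1 by blank wells. Combination Emax is taken as the second-highest inhibition in the matrix, and Bliss excess as the observed combination effect less EA + EB − EA·EB, with EA and EB the single-agent effects.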

[2] = system: HCC-44 (Lung Adenocarcinoma); assay: combination Emax (second highest fraction inhibited in the dose matrix, 72 h); higher = more inhibition; extreme values may be limits of the assay
Outline: as §1

[3] = system: HSC-3 (Oral Cavity Carcinoma); assay: as above
Outline: as §1

[4] = system: JHH-1 (Hepatocellular Carcinoma); assay: as above
Outline: as §1

[5] = system: NCI-H1623 (Lung Adenocarcinoma); assay: as above
Outline: as §1

[6] = system: RERF-LC-KJ (Lung Adenocarcinoma); assay: as above
Outline: as §1
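Throughout, for Bliss excess, mean over the matrix: after 72 h of two-drug dosing.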

SMILES	Bliss excess [1]	combination Emax [2]	combination Emax [3]	combination Emax [4]	combination Emax [5]	combination Emax [6]
NC1(C(=O)N[C@@H](CCO)c2ccc(Cl)cc2)CCN(c2ncnc3[nH]ccc23)CC1 [Capivasertib] + C[C@@H]1COCCN1C2=NC(=NC(=C2)C3(CC3)[S@](=N)(=O)C)C4=C5C=CNC5=NC=C4 [AZD6738] (first compound max 10 µM, 7x7, partner max 10 µM)	-0.0298	0.661	0.764	0.409	0.82	0.478
COc1nnc2ccc(N3CCC(c4ccc(OCCN5CCN(C)C(=O)[C@H]5C)cc4)CC3)nn12 [AZD5153] + C=CCn1c(=O)c2cnc(Nc3ccc(N4CCN(C)CC4)cc3)nc2n1-c1cccc(C(C)(C)O)n1 [AZD1775] (first compound max 1 µM, partner max 1 µM)	-0.0787	0.63	0.795	0.584	0.59	0.957
COc1nnc2ccc(N3CCC(c4ccc(OCCN5CCN(C)C(=O)[C@H]5C)cc4)CC3)nn12 [AZD5153] + Cn1cnc2c(F)c(Nc3ccc(Br)cc3Cl)c(C(=O)NOCCO)cc21 [Selumetinib] (first compound max 1 µM, 7x7, partner max 10 µM)	0.0636	0.728	0.812	0.693	0.706	0.868
CC(=O)c1c(C)c2cnc(Nc3ccc(N4CCNCC4)cn3)nc2n(C2CCCC2)c1=O [Palbociclib] + CC1(C)CCC(CN2CCN(c3ccc(C(=O)NS(=O)(=O)c4ccc(NCC5CCOCC5)c([N+](=O)[O-])c4)c(Oc4cnc5[nH]ccc5c4)c3)CC2)=C(c2ccc(Cl)cc2)C1 [Venetoclax] (first compound max 10 µM, 7x7, partner max 1 µM)	-0.0374	0.0628	0.359	0.138	0.248	0.117
COc1nnc2ccc(N3CCC(c4ccc(OCCN5CCN(C)C(=O)[C@H]5C)cc4)CC3)nn12 [AZD5153] + CCN(CCO)CCCOc1ccc2c(Nc3cc(CC(=O)Nc4cccc(F)c4)[nH]n3)ncnc2c1 [AZD2811] (first compound max 1 µM, 7x7, partner max 1 µM)	-0.0338	0.617	0.773	0.446	0.488	0.971
Cn1cnc2c(F)c(Nc3ccc(Br)cc3Cl)c(C(=O)NOCCO)cc21 [Selumetinib] + CC(C)n1c(=O)n(C)c2cnc3cc(F)c(-c4ccc(OCCCN5CCCCC5)nc4)cc3c21 [AZD1390] (first compound max 10 µM, 7x7, partner max 0.3 µM)	-0.0225	0.396	0.346	0.252	0.276	0.2
C[C@@H](c1ccc2nccn2c1)n1nnc2ncc(-c3cnn(C)c3)nc21 [Savolitinib] + CC1(C)CCC(CN2CCN(c3ccc(C(=O)NS(=O)(=O)c4ccc(NCC5CCOCC5)c([N+](=O)[O-])c4)c(Oc4cnc5[nH]ccc5c4)c3)CC2)=C(c2ccc(Cl)cc2)C1 [Venetoclax] (first compound max 1 µM, 7x7, partner max 1 µM)	-0.02	0.148	0.107	0.114	0.173	0.15
NC1(C(=O)N[C@@H](CCO)c2ccc(Cl)cc2)CCN(c2ncnc3[nH]ccc23)CC1 [Capivasertib] + CC(C)n1c(=O)n(C)c2cnc3cc(F)c(-c4ccc(OCCCN5CCCCC5)nc4)cc3c21 [AZD1390] (first compound max 10 µM, 7x7, partner max 0.3 µM)	-0.0359	0.602	0.608	0.169	0.477	0.449
COc1nnc2ccc(N3CCC(c4ccc(OCCN5CCN(C)C(=O)[C@H]5C)cc4)CC3)nn12 [AZD5153] + C[C@@H]1COCCN1C2=NC(=NC(=C2)C3(CC3)[S@](=N)(=O)C)C4=C5C=CNC5=NC=C4 [AZD6738] (first compound max 1 µM, 7x7, partner max 10 µM)	0.0139	0.726	0.845	0.663	0.672	0.968
NC1(C(=O)N[C@@H](CCO)c2ccc(Cl)cc2)CCN(c2ncnc3[nH]ccc23)CC1 [Capivasertib] + CC(=O)c1c(C)c2cnc(Nc3ccc(N4CCNCC4)cn3)nc2n(C2CCCC2)c1=O [Palbociclib] (first compound max 10 µM, 7x7, partner max 10 µM)	-0.0161	0.641	0.78	0.143	0.506	0.436
NC1(C(=O)N[C@@H](CCO)c2ccc(Cl)cc2)CCN(c2ncnc3[nH]ccc23)CC1 [Capivasertib] + Cn1cnc2c(F)c(Nc3ccc(Br)cc3Cl)c(C(=O)NOCCO)cc21 [Selumetinib] (first compound max 10 µM, 7x7, partner max 10 µM)	0.106	0.824	0.786	0.295	0.813	0.436
Cn1cnc2c(F)c(Nc3ccc(Br)cc3Cl)c(C(=O)NOCCO)cc21 [Selumetinib] + C=CCn1c(=O)c2cnc(Nc3ccc(N4CCN(C)CC4)cc3)nc2n1-c1cccc(C(C)(C)O)n1 [AZD1775] (first compound max 10 µM, partner max 1 µM)	-0.0088	0.64	0.601	0.599	0.607	0.401
CS(=O)(=O)CCNCc1ccc(-c2ccc3ncnc(Nc4ccc(OCc5cccc(F)c5)c(Cl)c4)c3c2)o1 [Lapatinib] + C[C@@H](Oc1cc(-c2cnn(C3CCNCC3)c2)cnc1N)c1c(Cl)ccc(F)c1Cl [Crizotinib] (first compound max 10 µM, 7x7, partner max 10 µM)	-0.0384	0.939	1	0.952	0.987	0.81
NC1(C(=O)N[C@@H](CCO)c2ccc(Cl)cc2)CCN(c2ncnc3[nH]ccc23)CC1 [Capivasertib] + CCN(CCO)CCCOc1ccc2c(Nc3cc(CC(=O)Nc4cccc(F)c4)[nH]n3)ncnc2c1 [AZD2811] (first compound max 10 µM, 7x7, partner max 1 µM)	-0.0388	0.663	0.689	0.232	0.555	0.503
CC(=O)c1c(C)c2cnc(Nc3ccc(N4CCNCC4)cn3)nc2n(C2CCCC2)c1=O [Palbociclib] + Cc1c2c(nn1C)CSCc1cc(n(C)n1)CSc1cc(c3ccccc3c1)OCCCc1c(C(=O)O)n(C)c3c-2c(Cl)ccc13 [AZD5991] (first compound max 10 µM, 7x7, partner max 1 µM)	-0.0224	0.169	0.613	0.289	0.818	0.288
CN(C)CCCOc1ccc(-c2ccc3ncc4c(c3c2)n(C2CCOCC2)c(=O)n4C)cn1 [AZD0156] + O=C(c1cc(Cc2n[nH]c(=O)c3ccccc23)ccc1F)N1CCN(C(=O)C2CC2)CC1 [Olaparib] (first compound max 3 µM, partner max 3 µM)	0.0947	0.456	0.467	0.196	0.333	0.368
COc1cc2ncnc(Nc3ccc(F)c(Cl)c3)c2cc1OCCCN1CCOCC1 [Gefitinib] + CC(C)n1c(=O)n(C)c2cnc3cc(F)c(-c4ccc(OCCCN5CCCCC5)nc4)cc3c21 [AZD1390] (first compound max 10 µM, 7x7, partner max 0.3 µM)	-0.0387	0.121	0.623	0.247	0.904	0.351
Cc1nc(Nc2ncc(C(=O)Nc3c(C)cccc3Cl)s2)cc(N2CCN(CCO)CC2)n1 [Dasatinib] + CC(=O)Nc1cccc(-n2c(=O)n(C3CC3)c(=O)c3c(Nc4ccc(I)cc4F)n(C)c(=O)c(C)c32)c1 [Trametinib] (first compound max 2 µM, 7x7, partner max 1 µM)	0.0359	0.955	0.867	0.806	0.576	0.436
C=CCn1c(=O)c2cnc(Nc3ccc(N4CCN(C)CC4)cc3)nc2n1-c1cccc(C(C)(C)O)n1 [AZD1775] + C1CN(CCC1(C(=O)N[C@@H](CCO)C2=CC=C(C=C2)Cl)N)C3=NC=NC4=C3C=CN4 [Capivasertib] (first compound max 3 µM, partner max 3 µM)	-0.0109	0.844	0.773	0.691	0.597	0.548
NC1(C(=O)N[C@@H](CCO)c2ccc(Cl)cc2)CCN(c2ncnc3[nH]ccc23)CC1 [Capivasertib] + COc1nnc2ccc(N3CCC(c4ccc(OCCN5CCN(C)C(=O)[C@H]5C)cc4)CC3)nn12 [AZD5153] (first compound max 10 µM, 7x7, partner max 1 µM)	-0.0278	0.704	0.861	0.378	0.52	0.877
C[C@@H](c1ccc2nccn2c1)n1nnc2ncc(-c3cnn(C)c3)nc21 [Savolitinib] + Cc1c2c(nn1C)CSCc1cc(n(C)n1)CSc1cc(c3ccccc3c1)OCCCc1c(C(=O)O)n(C)c3c-2c(Cl)ccc13 [AZD5991] (first compound max 1 µM, 7x7, partner max 1 µM)	-0.0335	0.0929	0.206	0.208	0.802	0.301
C=CCn1c(=O)c2cnc(Nc3ccc(N4CCN(C)CC4)cc3)nc2n1-c1cccc(C(C)(C)O)n1 [AZD1775] + C[C@@H]1COCCN1C2=NC(=NC(=C2)C3(CC3)[S@](=N)(=O)C)C4=C5C=CNC5=NC=C4 [AZD6738] (first compound max 1 µM, partner max 10 µM)	–	–	0.63	0.642	0.74	0.413
CCN(CCO)CCCOc1ccc2c(Nc3cc(CC(=O)Nc4cccc(F)c4)[nH]n3)ncnc2c1 [AZD2811] + C=CCn1c(=O)c2cnc(Nc3ccc(N4CCN(C)CC4)cc3)nc2n1-c1cccc(C(C)(C)O)n1 [AZD1775] (first compound max 1 µM, partner max 1 µM)	–	–	0.492	0.335	0.297	0.312
CN(CCO)CC[C@H](CSc1ccccc1)Nc1ccc(S(=O)(=O)NC(=O)c2ccc(N3CCC([C@@H](O)c4ccccc4-c4ccc(Cl)cc4)CC3)cc2)cc1S(=O)(=O)C(F)(F)F [AZD4320] + CCN(CCO)CCCOc1ccc2c(Nc3cc(CC(=O)Nc4cccc(F)c4)[nH]n3)ncnc2c1 [AZD2811] (first compound max 1 µM, 7x7, partner max 1 µM)	–	–	0.664	0.82	0.197	0.309
